Results reported in patent publication US20090005436A1, “Substituted Aminoalkyl- and Amidoalkyl-Benzopyran Derivatives” (NEWRON PHARMACEUTICALS S.p.A., priority 2005, published 2009).

Assays:
MAO-B = target: T1, MAO-B (Rattus norvegicus, UniProt P19643); experiment: In vitro MAO-B enzyme activity radioenzymatic assay (14C-phenylethylamine substrate), rat brain crude mitochondrial fraction
T1 sequence (P19643 1-520): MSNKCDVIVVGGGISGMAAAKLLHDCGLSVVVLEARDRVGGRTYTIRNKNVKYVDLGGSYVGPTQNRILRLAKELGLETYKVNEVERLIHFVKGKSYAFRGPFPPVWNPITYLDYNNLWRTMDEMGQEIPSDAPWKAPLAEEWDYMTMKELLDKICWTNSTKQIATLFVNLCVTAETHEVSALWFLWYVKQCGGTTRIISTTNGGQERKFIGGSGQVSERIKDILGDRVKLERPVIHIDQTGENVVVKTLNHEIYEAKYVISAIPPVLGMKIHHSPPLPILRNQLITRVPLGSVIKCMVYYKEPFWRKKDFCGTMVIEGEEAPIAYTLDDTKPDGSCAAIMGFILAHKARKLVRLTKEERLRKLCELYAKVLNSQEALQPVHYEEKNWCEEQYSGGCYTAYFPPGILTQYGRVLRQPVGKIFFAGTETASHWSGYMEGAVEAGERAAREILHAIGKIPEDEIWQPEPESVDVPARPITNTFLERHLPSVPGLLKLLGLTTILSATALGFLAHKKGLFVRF

MAO-A = target: T2, MAO-A (Rattus norvegicus, UniProt P21396); experiment: In vitro MAO-A enzyme activity radioenzymatic assay (14C-serotonin substrate), rat brain crude mitochondrial fraction
T2 sequence (P21396 1-526): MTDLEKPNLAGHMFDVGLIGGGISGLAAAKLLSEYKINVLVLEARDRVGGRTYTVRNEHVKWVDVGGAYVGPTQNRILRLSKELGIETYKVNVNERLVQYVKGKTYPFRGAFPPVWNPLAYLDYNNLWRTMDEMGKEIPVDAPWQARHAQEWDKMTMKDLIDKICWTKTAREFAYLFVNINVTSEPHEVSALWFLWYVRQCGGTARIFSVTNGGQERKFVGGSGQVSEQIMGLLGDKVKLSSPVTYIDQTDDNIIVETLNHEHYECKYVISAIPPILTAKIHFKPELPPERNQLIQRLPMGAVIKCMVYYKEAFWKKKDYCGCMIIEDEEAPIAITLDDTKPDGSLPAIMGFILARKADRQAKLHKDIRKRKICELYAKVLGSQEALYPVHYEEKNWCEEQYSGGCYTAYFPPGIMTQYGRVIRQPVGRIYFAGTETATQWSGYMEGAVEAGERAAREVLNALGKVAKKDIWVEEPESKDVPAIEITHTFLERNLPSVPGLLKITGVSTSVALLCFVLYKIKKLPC

Row | Structure (SMILES) | IC50 (MAO-B) [nM] | IC50 (MAO-A) [nM]
1 | CNCc1cc(=O)oc2cc(OCc3cccc(F)c3)ccc12 [4-[(Methylamino)methyl]-7-(3-fluorobenzyloxy)-2H-chromen-2-one] | 20 | 13500
2 | CNCCc1cc(=O)oc2cc(OCc3cccc(Cl)c3)ccc12 [4-[2-(Methylamino)ethyl]-7-(3-chlorobenzyloxy)-2H-chromen-2-one] | 300 | 74000
3 | NC(=O)Cc1cc(=O)oc2cc(OCc3cccc(F)c3)ccc12 [4-[(Aminocarbonyl)methyl]-7-(3-fluorobenzyloxy)-2H-chromen-2-one] | 50 | 70000
4 | NCCc1cc(=O)oc2cc(OCc3cccc(Cl)c3)ccc12 [4-(2-Aminoethyl)-7-(3-chlorobenzyloxy)-2H-chromen-2-one] | 250 | 31800
5 | NCc1cc(=O)oc2cc(OCc3cccc(Cl)c3)ccc12 [4-Aminomethyl-7-(3-chlorobenzyloxy)-2H-chromen-2-one] | 10 | 1900
6 | CNCc1cc(=O)oc2cc(OCc3cccc(Cl)c3)ccc12 [4-[(Methylamino)methyl]-7-(3-chlorobenzyloxy)-2H-chromen-2-one] | 10 | 5900

The remaining lines, values ahead:

Row | IC50 (MAO-B) [nM] | IC50 (MAO-A) [nM] | Structure (SMILES)
7 |  | 1400 | NNC(=O)Cc1cc(=O)oc2cc(OCc3ccccc3)ccc12 [4-[(Hydrazinocarbonyl)methyl]-7-benzyloxy-2H-chromen-2-one]
8 | 40 | > 100000 | CN(C)C(=O)Cc1cc(=O)oc2cc(OCc3cccc(Cl)c3)ccc12 [4-[Dimethylaminocarbonyl)methyl]-7-(3-chlorobenzyloxy)-2H-chromen-2-one]
9 | 80 | 15300 | CN(C)C(=O)CC1=CCOc2cc(OCc3ccccc3)ccc21 [4-[(Dimethylaminocarbonyl)methyl]-7-benzyloxy-2H-chromene]
